Results as given in PubChem BioAssay AID248 (DTP/NCI, 2004).
Several values for one entry are separate records, joined by “and”; a condition that tells them apart may be missing. Equal entries are not always repeated. Inconclusive results and toxic doses are left out. Cut-off read from the data, not from the text of the source: active = T/C of 150% or more; inactive = T/C below 125%. Numbered stars: 1 amine (or outer) side, 2 acyl side, 3 side chain; on linkers, the order of the positions; unused ones are H or OH. Bridge positions count the residues as written; N and C are the ends. Square brackets hold non-standard residues; d marks the D form. Peptide text beside a SMILES is read from it. I, II: the chains in the order shown. Actinocin(9to1) = Cc1c2oc3c(C)ccc(C(=O)[*:1])c3nc-2c(C(=O)[*:2])c(N)c1=O; NMeV = CN[CH](C(=O)O)C(C)C; Sar = CNCC(=O)O

Tested on: L1210 leukemia ip in BDF1 mice, survival T/C
Test: NCI In Vivo Anticancer Drug Screen. Data for tumor model L1210 Leukemia (intraperitoneal) in B6D2F1 (BDF1) mice
Settings: endpoint: mean survival time, higher = longer survival
Outline: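 In this screen, tumor-bearing mice given compound are compared to those given vehicle, and their survival values are reported as a treated-to-control quotient.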

[1] = dose: 100.0 mg/kg/injection, schedule: Q04DX003 (ip), vehicle: Klucel (hydroxypropylcellulose) (HPC)
[2] = dose: 200.0 mg/kg/injection, schedule: Q04DX003 (ip), vehicle: Klucel (hydroxypropylcellulose) (HPC)
[3] = dose: 400.0 mg/kg/injection, schedule: Q04DX003 (ip), vehicle: Klucel (hydroxypropylcellulose) (HPC)
[4] = dose: 100.0 mg/kg/injection, schedule: Q01DX001 (ip), vehicle: saline
[5] = dose: 200.0 mg/kg/injection, schedule: Q01DX001 (ip), vehicle: saline
[6] = dose: 400.0 mg/kg/injection, schedule: Q01DX001 (ip), vehicle: saline
[7] = dose: 100.0 mg/kg/injection, schedule: Q04DX003 (ip), vehicle: saline with Tween-80
[8] = dose: 100.0 mg/kg/injection, schedule: Q04DX002 (ip), vehicle: saline with Tween-80
[9] = dose: 200.0 mg/kg/injection, schedule: Q04DX002 (ip), vehicle: saline with Tween-80
[10] = dose: 100.0 mg/kg/injection, schedule: Q01DX001 (ip), vehicle: Klucel (hydroxypropylcellulose) (HPC)
[11] = dose: 200.0 mg/kg/injection, schedule: Q01DX001 (ip), vehicle: Klucel (hydroxypropylcellulose) (HPC)
[12] = dose: 400.0 mg/kg/injection, schedule: Q01DX001 (ip), vehicle: Klucel (hydroxypropylcellulose) (HPC)
[13] = dose: 100.0 mg/kg/injection, schedule: Q01DX009 (ip), vehicle: Klucel (hydroxypropylcellulose) (HPC)
[14] = dose: 200.0 mg/kg/injection, schedule: Q01DX009 (ip), vehicle: Klucel (hydroxypropylcellulose) (HPC)
[15] = dose: 400.0 mg/kg/injection, schedule: Q01DX009 (ip), vehicle: Klucel (hydroxypropylcellulose) (HPC)
[16] = dose: 100.0 mg/kg/injection, schedule: Q04DX002 (ip), vehicle: Klucel (hydroxypropylcellulose) (HPC)
[17] = dose: 200.0 mg/kg/injection, schedule: Q04DX002 (ip), vehicle: Klucel (hydroxypropylcellulose) (HPC)
[18] = dose: 50.0 mg/kg/injection, schedule: Q01DX009 (ip), vehicle: saline with Tween-80
[19] = dose: 200.0 mg/kg/injection, schedule: Q01DX001 (ip), vehicle: carboxymethylcellulose (CMC)
[20] = dose: 400.0 mg/kg/injection, schedule: Q04DX002 (ip), vehicle: Klucel (hydroxypropylcellulose) (HPC)
[21] = dose: 100.0 mg/kg/injection, schedule: Q04DX002 (ip), vehicle: saline

Measured: T/C

NC(CSCCc1ccc2ccccc2n1)C(=O)O (centres undefined)
inactive: [1] 100 % of control | [2] 95 % of control | [3] 99 % of control

CCCOS(C)(=O)=O
inactive: [4] 100 % of control | [5] 100 % of control | [6] 100 % of control

CCCNC(=O)Oc1cccc(NC(=O)OC)c1
inactive: [7] 93 % of control | dose: 200.0 mg/kg/injection, schedule: Q04DX003 (ip), vehicle: saline with Tween-80 97 % of control | dose: 400.0 mg/kg/injection, schedule: Q04DX003 (ip), vehicle: saline with Tween-80 103 % of control

Cc1cc(OC(=O)c2ccccc2)cc(C)c1OC(=O)c1ccccc1
inactive: [8] 96 % of control | [9] 100 % of control | dose: 400.0 mg/kg/injection, schedule: Q04DX002 (ip), vehicle: saline with Tween-80 96 % of control

CN(C)c1ncnc2c1ncn2Cc1ccccc1
inactive: dose: 100.0 mg/kg/injection, schedule: Q01DX001 (ip), vehicle: saline with Tween-80 92 % of control | dose: 200.0 mg/kg/injection, schedule: Q01DX001 (ip), vehicle: saline with Tween-80 96 % of control

O=S1(=O)CCNc2ccccc2O1
inactive: dose: 50.0 mg/kg/injection, schedule: Q01DX001 (ip), vehicle: Klucel (hydroxypropylcellulose) (HPC) 101 % of control | [10] 93 % of control | [11] 97 % of control | [12] 95 % of control

CSc1ncc(COC(C)=O)c(N)n1
inactive: [10] 97 % of control | [13] 102 % of control | [11] 99 % of control | [14] 96 % of control | [12] 92 % of control | [15] 104 % of control

CC(=O)Oc1ccc(N2CC=C(c3ccccc3)CC2)cc1
inactive: [16] 89 % of control | [17] 95 % of control

S=C(NCCNC(=S)[S][Sn]([c]1ccccc1)([c]1ccccc1)[c]1ccccc1)[S][Sn]([c]1ccccc1)([c]1ccccc1)[c]1ccccc1
inactive: dose: 4.0 mg/kg/injection, schedule: Q01DX015 (ip), vehicle: carboxymethylcellulose (CMC) 97 % of control | dose: 8.0 mg/kg/injection, schedule: Q01DX015 (ip), vehicle: carboxymethylcellulose (CMC) 97 % of control | dose: 16.0 mg/kg/injection, schedule: Q01DX015 (ip), vehicle: carboxymethylcellulose (CMC) 94 % of control | dose: 25.0 mg/kg/injection, schedule: Q01DX009 (ip), vehicle: saline with Tween-80 92 % of control | dose: 32.0 mg/kg/injection, schedule: Q01DX015 (ip), vehicle: carboxymethylcellulose (CMC) 94 % of control and 104 % of control | [18] 91 % of control | dose: 64.0 mg/kg/injection, schedule: Q01DX015 (ip), vehicle: carboxymethylcellulose (CMC) 112 % of control | dose: 100.0 mg/kg/injection, schedule: Q01DX001 (ip), vehicle: carboxymethylcellulose (CMC) 100 % of control | [7] 96 % of control | [19] 100 % of control | dose: 400.0 mg/kg/injection, schedule: Q01DX001 (ip), vehicle: carboxymethylcellulose (CMC) 102 % of control

Cc1c2oc3c(C)ccc(C(=O)NC4C(=O)NC(C(C)C)C(=O)N5CCCC5C(=O)N(C)CC(=O)N(C)C(C(C)C)C(=O)OC4C)c3nc-2c(C(=O)NC2C(=O)NC(C(C)C)C(=O)N3CCCC3C(=O)N(C)CC(=O)N(C)C(C(C)C)C(=O)OC2C)c(N)c1=O (centres undefined) (I: TVP[Sar][NMeV] / II: TVP[Sar][NMeV]; ester I:1-I:C, II:1-II:C; linker I:N-II:N via Actinocin(9to1); configuration not given here)
inactive: dose: 0.05 mg/kg/injection, schedule: Q01DX009 (ip), vehicle: water 117 % of control | dose: 0.1 mg/kg/injection, schedule: Q01DX009 (ip), vehicle: water 106 % of control | dose: 0.2 mg/kg/injection, schedule: Q01DX009 (ip), vehicle: water 120 % of control | dose: 0.3 mg/kg/injection, schedule: Q04DX003 (ip), vehicle: water 124 % of control | dose: 0.4 mg/kg/injection, schedule: Q01DX009 (ip), vehicle: water 93 % of control | dose: 1.2 mg/kg/injection, schedule: Q04DX003 (ip), vehicle: water 110 % of control | dose: 1.8 mg/kg/injection, schedule: Q04DX003 (ip), vehicle: water 91 % of control

COC(=O)CC(N)C(=O)OC (centres undefined)
inactive: [4] 89 % of control | [5] 86 % of control | [6] 90 % of control

COc1ccc(C(=O)/C=C/c2cccc([N+](=O)[O-])c2)cc1
inactive: [18] 97 % of control | dose: 100.0 mg/kg/injection, schedule: Q01DX009 (ip), vehicle: saline with Tween-80 97 % of control | dose: 200.0 mg/kg/injection, schedule: Q01DX009 (ip), vehicle: saline with Tween-80 97 % of control

c1ccc2c(c1)c1c(n2N2CCCCC2)CCC1
inactive: [8] 90 % of control | [9] 95 % of control

Nc1nc(=S)ss1
inactive: [1] 108 % of control | [2] 105 % of control | [3] 97 % of control

COC1CCC(CCNC(N)=O)CC1OC (centres undefined)
inactive: [16] 100 % of control | [17] 117 % of control | [20] 90 % of control

COc1cc([N+](=O)[O-])ccc1NC(=O)C(Br)C(Br)C(=O)O (centres undefined)
inactive: dose: 100.0 mg/kg/injection, schedule: Q01DX009 (ip), vehicle: other 94 % of control

CCOC(=O)C(O)C1(Cl)CCC(C(C)(C)C)CC1 (centres undefined)
inactive: [21] 103 % of control | dose: 200.0 mg/kg/injection, schedule: Q04DX002 (ip), vehicle: saline 106 % of control | dose: 400.0 mg/kg/injection, schedule: Q04DX002 (ip), vehicle: saline 106 % of control

CSC12OCC(O1)C1OC(C)(C)OC(C=O)C1O2 (centres undefined)
inactive: dose: 50.0 mg/kg/injection, schedule: Q04DX002 (ip), vehicle: saline 92 % of control | [21] 95 % of control

Cc1cc(/C=N/Nc2ccc3cccc(O)c3n2)c(O)c2ncccc12
inactive: [19] 93 % of control

c1ccc(NC2CCCCC2)nc1
inactive: dose: 100.0 mg/kg/injection, schedule: Q04DX003 (ip), vehicle: gum acacia 95 % of control | dose: 200.0 mg/kg/injection, schedule: Q04DX003 (ip), vehicle: gum acacia 98 % of control | dose: 400.0 mg/kg/injection, schedule: Q04DX003 (ip), vehicle: gum acacia 96 % of control

NC(=O)Nc1ccccc1
inactive: [13] 103 % of control | [16] 109 % of control | [14] 106 % of control | [17] 109 % of control | [15] 103 % of control | [20] 88 % of control
